# Assay results taken from patent US20100035822A1, “PROLINE-RICH PEPTIDES, PHARMACEUTICAL COMPOSITION, USE OF ONE OR MORE PEPTIDES AND METHOD OF TREATMENT” (priority 2006, published 2010).
# Square brackets hold non-standard residues; d marks the D form. Ends that are not written are not given here. pGlu = O=C1CC[C@@H](C(=O)O)N1
# Columns and labels:
# [1] = system: renal nitric oxide synthase (NOS); test: Activation of kidney NOS in mice (3H-arginine to 3H-citrulline conversion); assay type: in vivo, mouse; conditions: HOE 140 10 μg/Kg for 1 hour
# Procedure: Male Swiss albinos weighing 22-25 g were injected intraperitoneally with: (1) 50 μl 0.9% NaCl (basal level control), or with 0.9% NaCl supplemented with LPS (2 mg/Kg) (positive control); (2) SEQ ID NO 8 (0.21, 0.91, and 3.47 mg/Kg); (3) SEQ ID NO 8 (0.91 mg/Kg) injected into animals pre-treated via intraperitoneally with L-NAME (3 mg/Kg for 1 h); (4) SEQ ID NO 8 (0.91 mg/Kg) injected into animals pre-treated via intraperitoneally with HOE140 (10 μg/Kg for 1 h); (5) captopril (0.21, 0.91, and 3.47 mg/Kg). After 5, 15, 30, 60, 120, and 180 min, animals were killed, their kidneys removed and stored at −70° C. Animals of group 3 and 4 were killed 30 minutes after administration of the oligopeptide.
# NOS activity was measured according to Bredt and Snyder [Bredt D S and Snyder S H. Isolation of nitric oxide synthetase, a calmodulin-requiring enzyme. Proc. Natl. Acad. Sci. USA, 87, 682-685, 1990], and is based on estimating the enzymatic activity of the conversion of L-arginine into L-citrulline using ^3H-arginine as a reference for the conversion.
# The kidneys were minced in homogenizing buffer, pH 7.4 (20 mM HEPES, 0.32 M saccharose, 1 mM DTT, 0.1 mM EDTA, 1 mM PMSF), and sonicated. Protein dosage was performed according to Bradford (1976), followed by a chromatography step in a 300 μL Dowex 50WX8-400 column.
# For the enzymatic assay, 80 μg total protein from each sample were incubated for 60 minutes at 37° C. in 200 μL buffer (30 mM HEPES, 1 mM EDTA, 1.25 mM CaCl2, 1 mM NADPH, 10 μg/mL calmodulin, 4 μM FAD, 4 μM FMN, 25 μM BH4, 120 nM arginine, 0.5 μCi ^3H-arginine). The reaction was stopped by the addition of 1 ml 20 mM HEPES, and incubation in ice bath. ^3H-citrulline was separated from ^3H-arginine by ion-exchange chromatography in a 300 μL Dowex 50WX8-400 column. Radioactivity of the eluates was measured in a beta-counter. After converting cpm (counts per minute) into dpm (disintegration per minute), the specific activity of the nitric oxide synthase (NOS) was calculated using the following equation: […]
# [2] = system: SK-N-AS cells (human neuroblastoma); test: Free intracellular Ca2+ concentration in SK-N-AS cells (fluo-3 AM, confocal microscopy); assay type: cell-based
# Procedure: In these experiments the variation in free intracellular calcium [Ca^2+]i concentration was measured in SK-N-AS cells (human neuroblastoma, ATCC No. CRL-2137) after addition of 1 μmolar of peptides SEQ ID NO 1 or SEQ ID NO 8, or of 1 μmolar captopril. Cells were kept in DMEM (Dulbecco Modified Medium), supplemented with 10% fetal bovine serum (FBS) and 1% non-essential amino acids, at 5% CO2 atmosphere, at 37° C., and 95% relative humidity. Cells were treated with trypsin, and replicated at adequate cell concentrations.
# Measurements of variation in the concentration of free [Ca^2+]i were performed with a confocal microscope LSM 510 (Zeiss, Jena, Germany), as described by Martins et al., (Martins et al., Neuronal differentiation of P19 embryonal carcinoma cells modulates kinin B2 receptor gene expression and function. J. Biol. Chem. 280: 19576-19586, 2005). Approximately 5×10^4 SK-N-AS cells were plated on 60 mm plates 24 hours prior to measurement, and then treated with 4 μM fluo-3 AM (Invitrogen Corporation) in 0.5% DMSO and 0.1% non-ionic surfactant pluronic acid F-127 for 30 minutes at 37° C. Cells were washed with DMEM containing 10% FBS, and transferred to defined medium (5 μg/ml insulin, 30 μg/ml transferrin, 20 μM ethanolamine, 30 nM sodium selenite, 1 μM sodium pyruvate, 1% non-essential amino acids, 1 mM glutamine, 100 μg/ml penicillin, 100 μg/ml streptomycin, 10 mM HEPES pH 7.4 in DMEM). The fluorescent fluo-3 AM was excited at 488 nm, and the fluorescence measured at 526 nm.
# Variations in the [Ca^2+]i were measured in non-stimulated cells, and in cells stimulated with peptides SEQ ID NO 1 or SEQ ID NO 8, or with captopril (Sigma Aldrich). Increase of fluorescence was monitored for 2 minutes, and images were acquired in 256×256 pixels every second. At the end of each experiment, 5 μM ionophore (4-Br-A23187) were added, followed by 10 mM EGTA, or 20 μM digitonin to determine maximum and minimum fluorescence, Fmax and Fmin respectively, as described by Grynkiewicz et al., (1985).
# Intracellular calcium concentrations [Ca^2+]i, related to fluorescence (F) values obtained after addition of peptides SEQ ID NO 1 or SEQ ID NO 8, were calculated with the equation: [Ca^2+]=Kd(F−Fmin)/(Fmax−F), assuming Kd=450 nM for fluo-3 AM (Hallett et al., 1990).
# [3] = target: T1, argininosuccinate synthase (AsS) (Mus musculus, UniProt P16460); test: Affinity chromatography of mouse kidney extract on peptide column; identification of the bound protein; assay type: binding; conditions: affinity column with SEQ ID NO 7 as ligand; crude mouse kidney extract
# T1 construct: Cytosolic and membrane fractions of the renal extract (100 mg/ml total protein) were applied to separate columns; from tissue; host or cells: Balb-c mouse kidney, cytosolic and membrane fractions
# T1 sequence (P16460 1-412): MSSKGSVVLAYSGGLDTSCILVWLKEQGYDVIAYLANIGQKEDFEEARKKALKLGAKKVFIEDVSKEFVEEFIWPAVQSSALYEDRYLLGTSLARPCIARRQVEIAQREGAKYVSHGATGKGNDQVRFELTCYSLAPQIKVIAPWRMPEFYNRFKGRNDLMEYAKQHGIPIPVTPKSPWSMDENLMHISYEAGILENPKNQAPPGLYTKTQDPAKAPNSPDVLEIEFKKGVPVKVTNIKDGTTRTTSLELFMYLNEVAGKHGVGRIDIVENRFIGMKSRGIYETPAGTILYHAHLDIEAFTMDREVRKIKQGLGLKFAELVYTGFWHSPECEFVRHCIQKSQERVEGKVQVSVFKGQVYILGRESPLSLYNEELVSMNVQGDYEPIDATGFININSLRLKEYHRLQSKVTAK
# Procedure: Starting material were the cytosolic and plasma membrane crude extracts of mouse kidney cells homogenized in the buffer 10 mM Tris-HCl pH 7.5, 25 mM saccharose, 1 mM EDTA, and 1 mM PMSF (cytosolic fraction), or 1% Triton X-100 (plasma membrane fraction). Supernatants were dialyzed in 0.2 M NaHCO3, 0.5 M NaCl, pH 8.3, and separately applied to the affinity chromatography column Hitrap NHS-activated (GE Healthcare) coupled to 5 mg of peptide SEQ ID NO 7.
# Preparing affinity columns. Columns were washed three times with 2 ml 1 mM HCl before homogeneous preparations of SEQ ID NO 7 (5 mg in 1 ml 0.2 M NaHCO3, 0.5 M NaCl, pH 8.3) were applied. After 30 min incubation at room temperature, peptides had been coupled, and the column was inactivated with buffer A (0.5 M ethanolamine, 0.5 M NaCl, pH 8.3), and washed with 0.2 M NaHCO3, 0.5 M NaCl, pH 8.3, and stored at 4° C. in 50 mM Na2HPO4, 0.1%, NaN3, pH 7.0. The columns were called HiTrap-SEQ. ID NO 7. […]
# Affinity chromatography and analysis of the retained proteins by SDS-PAGE. […] Protein concentration (mg/ml) was determined by the method of Bradford (Bradford, M. M. A rapid and sensitive method for the quantitation of microgram quantities of protein utilizing the principle of protein-dye binding. Anal. Biochem. 72: 248-254, 1976) with the Protein Assay reagent from BioRad. […]
# [4] = target: T2, argininosuccinate synthase (AsS) (mouse, UniProt P16460 1-412); test: cell-based or functional assay
# T2 sequence: T1 sequence (P16460 1-412)
molecule,measurement,setting,value
HOE 140,effect of B2 receptor blockade on the NOS activity increase caused by SEQ ID NO 8,[1],not able to prevent the increase
ENWPHPQIPP [SEQ ID NO 7],time from the peak until the [Ca2+]i plateau,[2],20 s
same,[Ca2+]i response peak,[2]; immediately after addition of the peptide,~250 nM
same,binding to the approx. 46 kDa protein (AsS) of mouse kidney extract,[3],bound
[pGlu]NWPHPQIPP [oligopeptide SEQ ID NO 8],production rate of phosphate (enzymatic activity of the AsS),[4],~2.5 fold
